The source made the active and inactive calls. No cut-off for these calls is given here.
Experiments:
[1] = system: Canis familiaris; assay: Diuretic activity (ip) was tested in dogs; format: functional, organism-based; conditions: Canis lupus familiaris; Urine
[2] = target: Angiotensin-converting enzyme (Homo sapiens) (UniProt P12821); assay: Inhibition of Angiotensin I converting enzyme(ACE) at the dose of 100 mg/kg (ip) in dog; format: organism-based; parameters: dose 100 mg/kg; conditions: Canis lupus familiaris; target entry is the homologue from another species
[3] = system: Canis familiaris; assay: Maximum percent decrease in blood pressure at the dose of 100 mg/kg ip; format: functional, Canis lupus familiaris; conditions: route intraperitoneal
[4] = target: T1, Angiotensin-converting enzyme (Rattus norvegicus) (UniProt P47820); assay: Inhibition of Angiotensin I converting enzyme(ACE) at the dose of 100 mg/kg (ip) in rat; format: organism-based; parameters: dose 100 mg/kg
T1 sequence (whole entry): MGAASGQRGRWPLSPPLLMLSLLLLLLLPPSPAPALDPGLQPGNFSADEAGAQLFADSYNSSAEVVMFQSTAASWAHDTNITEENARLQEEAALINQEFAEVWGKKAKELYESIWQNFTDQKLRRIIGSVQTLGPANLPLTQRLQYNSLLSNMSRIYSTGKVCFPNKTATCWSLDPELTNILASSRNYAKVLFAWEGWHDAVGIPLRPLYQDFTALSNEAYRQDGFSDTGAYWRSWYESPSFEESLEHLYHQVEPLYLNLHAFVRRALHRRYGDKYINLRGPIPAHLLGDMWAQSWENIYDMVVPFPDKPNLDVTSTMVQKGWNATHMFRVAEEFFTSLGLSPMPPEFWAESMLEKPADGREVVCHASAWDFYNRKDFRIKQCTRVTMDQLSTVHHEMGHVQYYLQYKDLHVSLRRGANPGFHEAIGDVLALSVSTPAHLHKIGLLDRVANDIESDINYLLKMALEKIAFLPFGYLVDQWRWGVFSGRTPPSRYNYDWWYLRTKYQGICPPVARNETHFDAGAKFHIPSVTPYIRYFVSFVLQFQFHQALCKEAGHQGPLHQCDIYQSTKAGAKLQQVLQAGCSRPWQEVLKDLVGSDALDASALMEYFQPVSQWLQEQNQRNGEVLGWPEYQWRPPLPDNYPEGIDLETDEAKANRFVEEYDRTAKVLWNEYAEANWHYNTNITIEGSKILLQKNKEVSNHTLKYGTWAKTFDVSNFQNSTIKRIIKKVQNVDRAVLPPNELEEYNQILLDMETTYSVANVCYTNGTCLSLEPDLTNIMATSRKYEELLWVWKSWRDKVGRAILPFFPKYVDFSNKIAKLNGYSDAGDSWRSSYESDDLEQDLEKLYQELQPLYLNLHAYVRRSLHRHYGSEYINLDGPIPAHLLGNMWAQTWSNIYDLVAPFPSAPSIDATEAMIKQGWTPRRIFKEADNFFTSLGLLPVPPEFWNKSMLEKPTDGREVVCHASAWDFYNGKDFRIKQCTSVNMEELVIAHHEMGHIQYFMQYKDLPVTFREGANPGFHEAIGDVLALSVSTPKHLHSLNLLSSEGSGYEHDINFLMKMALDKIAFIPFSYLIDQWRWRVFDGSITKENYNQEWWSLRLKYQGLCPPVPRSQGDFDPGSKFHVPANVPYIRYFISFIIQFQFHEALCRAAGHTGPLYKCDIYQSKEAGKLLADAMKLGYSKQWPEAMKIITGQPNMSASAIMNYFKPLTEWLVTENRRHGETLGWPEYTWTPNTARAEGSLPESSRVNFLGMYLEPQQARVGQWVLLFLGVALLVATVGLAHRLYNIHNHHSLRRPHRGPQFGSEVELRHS

[5] = system: Canis familiaris; assay: Diuretic activity (po) in dog; NI-No Increase; format: functional, organism-based; conditions: Canis lupus familiaris; Urine
[6] = target: T2, Angiotensin-converting enzyme (Rattus norvegicus, UniProt P47820); assay: In vitro inhibitory activity against Angiotensin I converting enzyme(ACE)
T2 sequence (P47820 whole entry): T1 sequence (whole entry)

[7] = target: T1, Angiotensin-converting enzyme (Rattus norvegicus); assay: Inhibition of Angiotensin I converting enzyme(ACE) at the dose of 10 mg/kg (po) in rat; format: organism-based; parameters: dose 10 mg/kg
[8] = target: T1, Angiotensin-converting enzyme (Rattus norvegicus); assay: Inhibition of Angiotensin I converting enzyme(ACE) at the dose of 30 mg/kg (po) in rat; format: organism-based; parameters: dose 30 mg/kg
[9] = target: T1, Angiotensin-converting enzyme (Rattus norvegicus); assay: Inhibition of Angiotensin I converting enzyme(ACE) at the dose of 100 mg/kg (po) in rat; format: organism-based; parameters: dose 100 mg/kg
[10] = species: Rattus norvegicus; assay: Duration of action on ACE in rat; format: functional
[11] = system: Rattus norvegicus; assay: Diuretic activity (po); ND-Natriuresis&diuresis; format: functional, organism-based; conditions: Urine
[12] = system: Rattus norvegicus; assay: Diuretic activity (ip);NI- No increase; format: functional, organism-based; conditions: Urine
[13] = system: Rattus norvegicus; assay: Diuretic activity (ip);ND- Natriuresis and diuresis; format: functional, organism-based; conditions: Urine
[14] = target: T2, Angiotensin-converting enzyme; assay: (§1) In vitro inhibitory activity against Angiotensin I converting enzyme (ACE)
[15] = target: T1, Angiotensin-converting enzyme (Rattus norvegicus); assay: as §1; conditions: concentration not given here
[16] = target: T1, Angiotensin-converting enzyme (Rattus norvegicus); assay: Inhibition of Angiotensin I converting enzyme(ACE) at the dose of 10 mg/kg (ip) in rat; format: organism-based; parameters: dose 10 mg/kg; scale not given: the % may be the effect or the level left
[17] = system: Rattus norvegicus; assay: Diuretic activity (po);ND- Natriuresis and diuresis; format: functional, organism-based; conditions: Urine
[18] = system: Rattus norvegicus; assay: Diuretic activity (po);NI- No increase; format: functional, organism-based; conditions: Urine
[19] = system: Rattus norvegicus; assay: Diuretic activity (po);NI-No increase; format: functional, organism-based; conditions: Urine
[20] = system: Rattus norvegicus; assay: Diuretic activity (po); NI-No Increase; format: functional, organism-based; conditions: Urine
[21] = system: Rattus norvegicus; assay: Diuretic activity (ip); NI-No Increase; format: functional, organism-based; conditions: Urine
[22] = system: Rattus norvegicus; assay: Diuretic activity (ip);NI- No Increase; format: functional, organism-based; conditions: Urine

Sequence of Angiotensin-converting enzyme (Homo sapiens) (P12821 whole entry): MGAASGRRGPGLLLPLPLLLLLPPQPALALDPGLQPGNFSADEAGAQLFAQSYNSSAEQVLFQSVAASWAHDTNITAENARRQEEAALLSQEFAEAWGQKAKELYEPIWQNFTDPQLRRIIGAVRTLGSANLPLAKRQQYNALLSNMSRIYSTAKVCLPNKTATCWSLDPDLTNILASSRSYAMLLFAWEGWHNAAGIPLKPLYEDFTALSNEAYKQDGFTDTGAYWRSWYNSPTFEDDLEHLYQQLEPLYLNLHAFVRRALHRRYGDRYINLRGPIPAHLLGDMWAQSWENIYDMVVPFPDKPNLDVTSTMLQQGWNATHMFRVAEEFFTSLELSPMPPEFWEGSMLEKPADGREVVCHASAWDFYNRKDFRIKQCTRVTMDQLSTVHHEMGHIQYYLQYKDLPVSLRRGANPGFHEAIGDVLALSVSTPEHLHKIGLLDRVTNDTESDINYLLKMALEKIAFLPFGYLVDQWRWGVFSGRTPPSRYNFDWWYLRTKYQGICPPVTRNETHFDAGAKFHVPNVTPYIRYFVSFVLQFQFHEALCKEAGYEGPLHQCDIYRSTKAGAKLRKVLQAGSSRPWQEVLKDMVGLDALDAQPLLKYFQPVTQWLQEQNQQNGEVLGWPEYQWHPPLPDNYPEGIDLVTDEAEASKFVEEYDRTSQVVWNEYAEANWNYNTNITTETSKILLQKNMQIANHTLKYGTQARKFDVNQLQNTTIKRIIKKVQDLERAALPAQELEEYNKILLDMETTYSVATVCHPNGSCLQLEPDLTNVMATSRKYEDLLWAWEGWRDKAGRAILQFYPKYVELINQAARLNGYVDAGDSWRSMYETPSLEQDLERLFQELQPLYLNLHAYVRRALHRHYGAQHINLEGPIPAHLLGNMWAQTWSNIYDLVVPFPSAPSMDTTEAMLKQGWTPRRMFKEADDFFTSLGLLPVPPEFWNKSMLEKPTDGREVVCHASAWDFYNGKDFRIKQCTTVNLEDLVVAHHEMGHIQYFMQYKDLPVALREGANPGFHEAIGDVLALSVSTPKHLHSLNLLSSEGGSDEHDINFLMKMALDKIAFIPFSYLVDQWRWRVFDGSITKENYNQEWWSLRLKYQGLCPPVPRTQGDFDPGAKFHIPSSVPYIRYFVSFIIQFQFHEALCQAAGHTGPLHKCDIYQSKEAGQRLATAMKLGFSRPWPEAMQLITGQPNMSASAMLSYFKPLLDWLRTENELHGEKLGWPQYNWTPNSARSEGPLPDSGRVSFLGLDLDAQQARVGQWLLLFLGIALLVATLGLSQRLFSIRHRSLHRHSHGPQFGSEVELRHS

Compound	ACE inhibition [4]	IC50 [6]	ACE inhibition [7]	ACE inhibition [9]	IC50 [14]	Duration [10]	further results
C[C@H](CS)C(=O)N1CCC[C@H]1C(=O)O							Activity [1]: inactive
C[C@H](N[C@@H](CCc1ccccc1)C(=O)O)C(=O)N(CC(=O)O)CC1Nc2cc(Cl)c(S(N)(=O)=O)cc2S(=O)(=O)N1 (some centres undefined)	100%	38 µM	50%	80%		>3 h	inhibition [2]: 100%; Decrease [3]: 21%; Activity [5]: No increase; ACE inhibition [8]: 50%; Activity [11]: Natriuresis and diuresis
CCOC(=O)c1cc(S(N)(=O)=O)c(NCCCC[C@H](C(=O)O)N(Cc2ccccc2)C(=O)[C@H](C)N[C@@H](CCc2ccccc2)C(=O)OCC)cc1Cl.Cl	80%	22 µM		< 30%		3 h	Activity [12]: No increase
CCOC(=O)[C@H](CCc1ccccc1)N[C@@H](C)C(=O)N(CC(=O)O)N(C)CC1Nc2cc(Cl)c(S(N)(=O)=O)cc2S(=O)(=O)N1.Cl (some centres undefined)				50%		<1 h	inhibition [15]: 74%; Activity [16]: 80%; Activity [17]: Natriuresis and diuresis
C[C@H](N[C@@H](CCc1ccccc1)C(=O)O)C(=O)N(CC(=O)O)Cc1cc(C(C)(C)C)cc(I)c1O.Cl	100%	0.16 µM				3 h	Activity [12]: No increase
C[C@H](N[C@@H](CCc1ccccc1)C(=O)O)C(=O)N(CC(=O)O)CC(=O)Nc1cc(C(=O)O)cc(S(N)(=O)=O)c1Cl.Cl	80%	2.2 µM		< 30%		3 h	Activity [20]: No increase; ACE inhibition [8]: < 30%
NS(=O)(=O)c1cc2c(cc1Cl)NC(CN(CC(=O)O)C(=O)[C@H](CCCCNC(=O)OCc1ccccc1)N[C@@H](CCc1ccccc1)C(=O)O)NS2(=O)=O (some centres undefined)	100%				0.24 µM	<1 h	Activity [18]: No increase

More lines, main results first:

ACE inhibition [4]	IC50 [6]	ACE inhibition [7]	ACE inhibition [9]	IC50 [14]	Compound	Duration [10]	further results
80%		80%	80%	15 µM	CCOC(=O)[C@H](CCc1ccccc1)N[C@@H](CCCCNC(=O)c1ccc(Cl)c(S(N)(=O)=O)c1)C(=O)N1CCC[C@H]1C(=O)O.Cl	3 h	Activity [13]: Natriuresis and diuresis
				0.007 µM	Cl.NS(=O)(=O)c1cc(C(=O)NCCCC[C@H](N[C@@H](CCc2ccccc2)C(=O)O)C(=O)N(CC(=O)O)C2Cc3ccccc3C2)ccc1Cl	3 h	Activity [18]: No increase
		50%	100%	0.04 µM	CCOC(=O)[C@H](CCc1ccccc1)N[C@@H](CCCCNC(=O)c1ccc(Cl)c(S(N)(=O)=O)c1)C(=O)N(CC(=O)O)C1Cc2ccccc2C1.Cl	>3 h	Activity [16]: 100%; Activity [19]: No increase
100%	28 µM	50%	80%		CCOC(=O)c1cc(S(N)(=O)=O)c(Cl)cc1NCCCC[C@H](C(=O)O)N(Cc1ccccc1)C(=O)[C@H](C)N[C@@H](CCc1ccccc1)C(=O)OCC.Cl	<1 h	ACE inhibition [8]: 80%; Activity [21]: No increase
100%		80%	100%	0.0065 µM	Cl.NS(=O)(=O)c1cc(C(=O)NCCCC[C@H](N[C@@H](CCc2ccccc2)C(=O)O)C(=O)N2CCC[C@H]2C(=O)O)ccc1Cl	>3 h	Activity [18]: No increase; Activity [22]: No increase
